In PubChem BioAssay AID248 (DTP/NCI, 2004) one finds T/C data, which are given here for 12 molecules.

This assay relates to L1210 leukemia ip in BDF1 mice, survival T/C. Briefly: NCI In Vivo Anticancer Drug Screen. Data for tumor model L1210 Leukemia (intraperitoneal) in B6D2F1 (BDF1) mice. Particulars: endpoint: mean survival time, higher = longer survival. An outline of the steps: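 Antitumor effect is assessed in tumor-bearing animals. Survival in the compound arm is compared with a vehicle-dosed control arm and expressed as their quotient.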

The mark [1] stands for this setting: dose: 10.0 mg/kg/injection, schedule: Q01DX009 (ip), vehicle: saline with Tween-80.
[2] abbreviates: dose: 100.0 mg/kg/injection, schedule: Q04DX003 (ip), vehicle: acetone.
Setting [3] is: dose: 100.0 mg/kg/injection, schedule: Q01DX009 (ip), vehicle: Klucel (hydroxypropylcellulose) (HPC).
[4] abbreviates: dose: 100.0 mg/kg/injection, schedule: Q04DX003 (ip), vehicle: Klucel (hydroxypropylcellulose) (HPC).
Setting [5] is: dose: 200.0 mg/kg/injection, schedule: Q01DX009 (ip), vehicle: Klucel (hydroxypropylcellulose) (HPC).
Setting [6] is: dose: 200.0 mg/kg/injection, schedule: Q04DX003 (ip), vehicle: Klucel (hydroxypropylcellulose) (HPC).
Where [7] appears, read: dose: 400.0 mg/kg/injection, schedule: Q04DX003 (ip), vehicle: Klucel (hydroxypropylcellulose) (HPC).
Setting [8] is: dose: 25.0 mg/kg/injection, schedule: Q04DX003 (ip), vehicle: Klucel (hydroxypropylcellulose) (HPC).
[9] abbreviates: dose: 50.0 mg/kg/injection, schedule: Q04DX003 (ip), vehicle: Klucel (hydroxypropylcellulose) (HPC).

Values joined by “and” are separate entries in the source; they are usually repeats but may differ in a detail not shown here. Equal entries are not always repeated. Inconclusive results and toxic doses are left out.

`CN1CCN(CCCN2c3ccccc3Sc3ccc(C(F)(F)F)cc32)CC1`: the T/C is 93 % of control (dose: 3.12 mg/kg/injection, schedule: Q01DX009 (ip), vehicle: saline); 98 % of control and 104 % of control and 118 % of control (dose: 6.25 mg/kg/injection, schedule: Q01DX009 (ip), vehicle: saline); 112 % of control (dose: 9.0 mg/kg/injection, schedule: Q04DX003 (ip), vehicle: saline with Tween-80); 101 % of control (dose: 9.3 mg/kg/injection, schedule: Q01DX009 (ip), vehicle: saline); 106 % of control under setting [1]; 113 % of control and 106 % of control (dose: 12.5 mg/kg/injection, schedule: Q01DX009 (ip), vehicle: saline). The T/C runs as follows: (dose: 12.5 mg/kg/injection, schedule: Q04DX003 (ip), vehicle: saline) 102 % of control; (dose: 15.0 mg/kg/injection, schedule: Q01DX009 (ip), vehicle: saline with Tween-80) 101 % of control; (dose: 18.0 mg/kg/injection, schedule: Q01DX001 (ip), vehicle: saline with Tween-80) 104 % of control; (dose: 18.0 mg/kg/injection, schedule: Q04DX003 (ip), vehicle: saline with Tween-80) 117 % of control; (dose: 18.7 mg/kg/injection, schedule: Q01DX009 (ip), vehicle: saline) 114 % of control; (dose: 18.75 mg/kg/injection, schedule: Q04DX003 (ip), vehicle: saline) 106 % of control. Also, the T/C is, setting by setting: (dose: 20.0 mg/kg/injection, schedule: Q04DX003 (ip), vehicle: saline with Tween-80) 111 % of control; (dose: 22.0 mg/kg/injection, schedule: Q01DX009 (ip), vehicle: saline with Tween-80) 118 % of control; (dose: 25.0 mg/kg/injection, schedule: Q01DX009 (ip), vehicle: acetone) 107 % of control; (dose: 25.0 mg/kg/injection, schedule: Q01DX009 (ip), vehicle: saline with Tween-80) 108 % of control; (dose: 25.0 mg/kg/injection, schedule: Q01DX009 (ip), vehicle: saline) 102 % of control and 109 % of control; (dose: 25.0 mg/kg/injection, schedule: Q04DX003 (ip), vehicle: acetone) 100 % of control. Also, the T/C is, setting by setting: (dose: 25.0 mg/kg/injection, schedule: Q04DX003 (ip), vehicle: saline) 103 % of control [middle of 4 runs]; (dose: 30.0 mg/kg/injection, schedule: Q04DX003 (ip), vehicle: saline with Tween-80) 119 % of control; (dose: 33.0 mg/kg/injection, schedule: Q01DX009 (ip), vehicle: saline with Tween-80) 123 % of control; (dose: 37.0 mg/kg/injection, schedule: Q01DX001 (ip), vehicle: saline with Tween-80) 104 % of control; (dose: 37.5 mg/kg/injection, schedule: Q04DX003 (ip), vehicle: saline) 96 % of control; (dose: 44.0 mg/kg/injection, schedule: Q04DX003 (ip), vehicle: saline with Tween-80) 116 % of control. Further, the T/C by setting is: (dose: 50.0 mg/kg/injection, schedule: Q01DX009 (ip), vehicle: acetone) 120 % of control; (dose: 50.0 mg/kg/injection, schedule: Q04DX003 (ip), vehicle: acetone) 100 % of control; (dose: 50.0 mg/kg/injection, schedule: Q04DX003 (ip), vehicle: saline) 111 % of control [middle of 4 runs]; (dose: 66.0 mg/kg/injection, schedule: Q04DX003 (ip), vehicle: saline with Tween-80) 108 % of control; (dose: 75.0 mg/kg/injection, schedule: Q01DX001 (ip), vehicle: saline with Tween-80) 113 % of control; (dose: 75.0 mg/kg/injection, schedule: Q04DX003 (ip), vehicle: saline with Tween-80) 119 % of control. Further, the T/C is 102 % of control (dose: 75.0 mg/kg/injection, schedule: Q04DX003 (ip), vehicle: saline); 101 % of control (dose: 100.0 mg/kg/injection, schedule: Q01DX001 (ip), vehicle: saline); 113 % of control (dose: 100.0 mg/kg/injection, schedule: Q01DX009 (ip), vehicle: acetone); 121 % of control under setting [2]; 99 % of control and 112 % of control (dose: 100.0 mg/kg/injection, schedule: Q04DX003 (ip), vehicle: saline); 90 % of control (dose: 150.0 mg/kg/injection, schedule: Q01DX001 (ip), vehicle: saline with Tween-80).
Consider `O=C1CC=Nc2ccc([N+](=O)[O-])cc21`, for which the T/C is, setting by setting: under setting [3], 101 % of control; under setting [4], 98 % of control; under setting [5], 97 % of control; under setting [6], 109 % of control; (dose: 400.0 mg/kg/injection, schedule: Q01DX009 (ip), vehicle: Klucel (hydroxypropylcellulose) (HPC)) 101 % of control; under setting [7], 108 % of control.
For the molecule `C=CCOCC(O)CN(CC(C)C)CC(C)C` (stereo not given), the T/C by setting is: under setting [3], 112 % of control; under setting [4], 95 % of control; under setting [5], 101 % of control; under setting [6], 88 % of control; under setting [7], 105 % of control.
`CSc1ccc([N+](=O)[O-])cc1`: the T/C by setting is: under setting [4], 104 % of control; under setting [6], 100 % of control.
`O=[As](O)(O)Cc1cccc(F)c1`: the T/C under setting [8] is 96 % of control, the T/C under setting [9] is 101 % of control and the T/C under setting [4] was 87 % of control.
As for `NC(=O)c1cc(C(=O)O)ccc1N(N)O`, the T/C runs as follows: (dose: 100.0 mg/kg/injection, schedule: Q04DX003 (ip), vehicle: saline with Tween-80) 101 % of control; (dose: 200.0 mg/kg/injection, schedule: Q04DX003 (ip), vehicle: saline with Tween-80) 101 % of control; (dose: 400.0 mg/kg/injection, schedule: Q04DX003 (ip), vehicle: saline with Tween-80) 90 % of control.
As for `O=[N+]([O-])c1cc([N+](=O)[O-])c(Cl)cc1Cl`, the T/C was 101 % of control (dose: 3.13 mg/kg/injection, schedule: Q01DX009 (ip), vehicle: Klucel (hydroxypropylcellulose) (HPC)); 106 % of control (dose: 6.25 mg/kg/injection, schedule: Q01DX009 (ip), vehicle: Klucel (hydroxypropylcellulose) (HPC)); 106 % of control (dose: 12.5 mg/kg/injection, schedule: Q01DX009 (ip), vehicle: Klucel (hydroxypropylcellulose) (HPC)); 96 % of control under setting [4]; 89 % of control under setting [6].
For `O=C1OC(Cl)(C(Cl)(Cl)Cl)C(=O)OC1(Cl)C(Cl)(Cl)Cl` (stereo not given), the T/C is 98 % of control under setting [2]; 98 % of control (dose: 200.0 mg/kg/injection, schedule: Q04DX003 (ip), vehicle: acetone); 96 % of control (dose: 400.0 mg/kg/injection, schedule: Q04DX003 (ip), vehicle: acetone).
With `Cc1cc(=O)c(CCl)n[nH]1`, the T/C (dose: 25.0 mg/kg/injection, schedule: Q01DX009 (ip), vehicle: Klucel (hydroxypropylcellulose) (HPC)) was 115 % of control; the T/C under setting [8] is 120 % of control; the T/C under setting [9] is 116 % of control; the T/C under setting [4] was 97 % of control and 89 % of control.
As for `N#CC(C#N)=CN1CCCC1`, the T/C reads like this: (dose: 5.0 mg/kg/injection, schedule: Q01DX009 (ip), vehicle: saline with Tween-80) 89 % of control; under setting [1], 91 % of control; (dose: 20.0 mg/kg/injection, schedule: Q01DX009 (ip), vehicle: saline with Tween-80) 93 % of control.
As to `NP(=O)(N1CC1)N1CC1`, the T/C (dose: 1.0 mg/kg/injection, schedule: Q01DX001 (ip), vehicle: carboxymethylcellulose (CMC)) is 110 % of control; the T/C (dose: 1.0 mg/kg/injection, schedule: Q01DX015 (ip), vehicle: carboxymethylcellulose (CMC)) is 116 % of control; the T/C (dose: 2.0 mg/kg/injection, schedule: Q01DX001 (ip), vehicle: carboxymethylcellulose (CMC)) was 124 % of control; the T/C (dose: 4.0 mg/kg/injection, schedule: Q01DX001 (ip), vehicle: carboxymethylcellulose (CMC)) was 110 % of control; the T/C (dose: 15.0 mg/kg/injection, schedule: Q01DX001 (ip), vehicle: carboxymethylcellulose (CMC)) was 150 % of control; the T/C (dose: 30.0 mg/kg/injection, schedule: Q01DX001 (ip), vehicle: carboxymethylcellulose (CMC)) is 186 % of control.
Regarding `CC([NH-])=O.CC([NH-])=O.[Cl][Pt+2][Cl]`, the T/C runs as follows: (dose: 50.0 mg/kg/injection, schedule: Q01DX009 (ip), vehicle: water) 120 % of control; (dose: 100.0 mg/kg/injection, schedule: Q01DX009 (ip), vehicle: water) 115 % of control; (dose: 100.0 mg/kg/injection, schedule: Q04DX003 (ip), vehicle: water) 114 % of control; (dose: 200.0 mg/kg/injection, schedule: Q04DX003 (ip), vehicle: water) 110 % of control.
